Assay results: patent US20130116219A1, “ANTIMICROBIAL CARBOLINE COMPOUNDS” (ALCON RESEARCH, LTD., priority 2011, published 2013)
Values after ≈ are worked out from the molar mass of the structure shown.

How the values were obtained:
[1] = test system: Ad5; assay: Ad5 genome replication assay (cell-based QPCR) in A549 cells; settings: Human adenovirus sp., A549, 72 h, read-out: Ad5 qPCR EC50 (μM)
Procedure: Compounds of the present invention were tested for potency against Ad5 in an Ad5 genome replication assay, a cell-based QPCR assay of Ad5 genome replication in A549 cells, a human lung carcinoma cell line. Serotype of human Ad5, used in this replication assay can also replicate in a NZW rabbit model of adenoviral ocular keratitis.
EC50 values (μM) for inhibition of adenoviral replication were determined by QPCR. Briefly, 10,000 cultured A549 cells were inoculated with 25,000 pfu/well for 3 hrs in 2% FBS F12-K A549 culture media. Following inoculation, A549 cells were treated with log unit dilutions of compound of Formula I (˜10 μM thru˜10 pM) in 10% FBS F12-K culture media with 0.3% DMSO for an additional 3 days. Cell viability was assessed with Alamar Blue (10 μl/well for 2 hrs; fluorescence Ex353; Em595 nm). Plates were washed 3 times with 125 μl PBS, cell lysates were prepared for QPCR analysis using Cells to SNP kit (Life Technologies). Ad5 genome levels per cell were determined with RNaseP and Ad5 hexon Taqman Assays (Life Technologies). EC50, the concentration that inhibited Ad5 genome replication formation by 50%, was estimated from plots of Ad5 genomes/cell vs. compound concentration.

[2] = test system: Ad3; assay: Plaque reduction assay in A549 cells, Ad3; type: cell-based; settings: unidentified adenovirus, 168 h, approximately 7 d, read-out: Adenovirus Serotype EC50 (μg/mL) Ad3
Procedure: (§1) Compounds of the present invention were tested for potency against AdV serotypes Ad3, Ad4, Ad5, Ad7a, Ad8, Ad19, and Ad37 in a plaque reduction assay, a cell-based assay of AdV replication. Ad8, Ad19, and Ad37 are the serotypes most commonly associated with epidemic keratoconjunctivitis (EKC). Ad3, Ad4, and Ad7a are serotypes most commonly associated with follicular conjunctivitis and serotype Ad5 can replicate in the NZW rabbit model of adenoviral ocular keratitis. Ad3, Ad4, Ad5, Ad7a, Ad8, and Ad19 were recovered at the Charles T. Campbell Ophthalmic Microbiology Laboratory from patients presenting with typical adenoviral ocular disease. No clinical isolates of Ad37 were available, so the ATCC (American Type Culture Collection, Manassas, Va.) reference strain of Ad37 was used.
(§2) EC50 values (μg/ml) for inhibition of adenoviral replication were determined by plaque reduction assay. Briefly, cultured A549 cells were inoculated with approximately 100 pfu of the indicated adenovirus serotype. Inoculated cells were overlaid with methylcellulose medium containing Compound 2 at 100, 10, 1, 0.1, 0.01, and 0.001 μg/ml, and incubated at 37° C./5% CO2 for approximately 7 d. Plates were stained with gentian violet, and plaques were counted in a 25× dissecting microscope. IC50, the concentration that inhibited plaque formation by 50%, was estimated from plots of mean plaque count vs. concentration.

[3] = test system: Ad4; assay: Plaque reduction assay in A549 cells, Ad4; type: cell-based; settings: unidentified adenovirus, 168 h, approximately 7 d, read-out: Adenovirus Serotype EC50 (μg/mL) Ad4
Procedure: as §1, §2

[4] = test system: Ad5; assay: Plaque reduction assay in A549 cells, Ad5; type: cell-based; settings: unidentified adenovirus, A549, 168 h, read-out: Adenovirus Serotype EC50 (μg/mL) Ad5
Procedure: as §1, §2

[5] = test system: Ad7a; assay: Plaque reduction assay in A549 cells, Ad7a; type: cell-based; settings: unidentified adenovirus, 168 h, approximately 7 d, read-out: Adenovirus Serotype EC50 (μg/mL) Ad7a
Procedure: as §1, §2

[6] = test system: Ad8; assay: Plaque reduction assay in A549 cells, Ad8; type: cell-based; settings: unidentified adenovirus, A549, 168 h, read-out: Adenovirus Serotype EC50 (μg/mL) Ad8
Procedure: as §1, §2

[7] = test system: Ad19; assay: Plaque reduction assay in A549 cells, Ad19; type: cell-based; settings: unidentified adenovirus, 168 h, approximately 7 d, read-out: Adenovirus Serotype EC50 (μg/mL) Ad19
Procedure: as §1, §2

[8] = test system: Ad37; assay: Plaque reduction assay in A549 cells, Ad37; type: cell-based; settings: unidentified adenovirus, 168 h, approximately 7 d, ATCC reference strain, read-out: Adenovirus Serotype EC50 (μg/mL) Ad37
Procedure: as §1, §2

[9] = test system: AdV serotype 5 (Ad5); settings: Harvey et al., Antiviral Res. 82:1-11, 2009; read-out: EC50, inhibition of replication of AdV serotype 5 (Ad5); cited from earlier work
[10] = test system: polyoma virus SV40; settings: Harvey et al., Antiviral Res. 82:1-11, 2009; read-out: EC50, inhibition of replication of polyoma virus SV40; cited from earlier work
[11] = test system: human papillomavirus (HPV); settings: Harvey et al., Antiviral Res. 82:1-11, 2009; read-out: EC50, inhibition of replication of human papillomavirus (HPV); cited from earlier work
[12] = test system: Epstein-Barr virus (EBV); settings: Harvey et al., Antiviral Res. 82:1-11, 2009; read-out: EC50, inhibition of replication of Epstein-Barr virus (EBV); cited from earlier work

Row | Structure (SMILES) | EC50 [1] [µM] | EC50 [2] [µg/mL] | EC50 [3] [µg/mL] | EC50 [4] [µg/mL] | EC50 [5] [µg/mL] | EC50 [6] [µg/mL] | EC50 [7] [µg/mL] | EC50 [8] [µg/mL] | EC50 [9] [nM] | EC50 [10] [nM] | EC50 [11] [nM] | EC50 [12] [nM]
1 | CC(C)C[C@H]1c2[nH]c3ccc(Cl)cc3c2CCN1C(=O)C1CN(C2CC2)C1 [Compound 92, (S)-(6-chloro-1-isobutyl-3,4-dihydro-1H-pyrido[3,4-b]indol-2(9H)-yl)(1-cyclopropylazetidin-3-yl)methanone] | 0.1 to 1 | > 1 | > 1 | 0.1 to 1 (≈ 0.259 to 2.59 µM) | 0.1 to 1 (≈ 0.259 to 2.59 µM) | > 1 | 0.1 to 1 (≈ 0.259 to 2.59 µM) | 0.1 to 1 (≈ 0.259 to 2.59 µM) | – | – | – | –
2 | CC(C)C[C@H]1c2[nH]c3ccc(Cl)cc3c2CCN1C(=O)C1CCN(C2CC2)CC1 [Compound 93, (S)-(6-chloro-1-isobutyl-3,4-dihydro-1H-pyrido[3,4-b]indol-2(9H)-yl)(1-cyclopropylpiperidin-4-yl)methanone] | 0.1 to 1 | 0.1 to 1 (≈ 0.242 to 2.42 µM) | 0.1 to 1 (≈ 0.242 to 2.42 µM) | 0.1 to 1 (≈ 0.242 to 2.42 µM) | 0.1 to 1 (≈ 0.242 to 2.42 µM) | 0.1 to 1 (≈ 0.242 to 2.42 µM) | 0.1 to 1 (≈ 0.242 to 2.42 µM) | 0.1 to 1 (≈ 0.242 to 2.42 µM) | – | – | – | –
3 | CC(C)C[C@H]1c2[nH]c3ccc(Br)cc3c2CCN1C(=O)C1CCN(C2CC2)CC1 [Compound 97, (S)-(6-bromo-1-isobutyl-3,4-dihydro-1H-pyrido[3,4-b]indol-2(9H)-yl)(1-cyclopropylpiperidin-4-yl)methanone] | < 0.1 | 0.1 to 1 (≈ 0.218 to 2.18 µM) | > 1 | < 0.1 | 0.1 to 1 (≈ 0.218 to 2.18 µM) | < 0.1 | 0.1 to 1 (≈ 0.218 to 2.18 µM) | 0.1 to 1 (≈ 0.218 to 2.18 µM) | – | – | – | –
4 | O=C(N[C@@H]1CCCc2c1[nH]c1ccc(Cl)cc21)c1ccccn1 [GSK-983] | – | – | – | – | – | – | – | – | 5 to 20 | 5 to 20 | 5 to 20 | 5 to 20
